Legend:
[1] = target: tankyrase 2 protein PARP domain, TNKS2P (GST-tagged) (Homo sapiens (Human), UniProt Q9H2K2); assay: TNKS2 autoparsylation (AP) biochemical assay, LC/MS detection of nicotinamide; conditions: 20 nM enzyme, 250 μM NAD+, 60 min room temperature
[2] = target: human tankyrase 1 PARP catalytic domain, TNKS1P (GST-tagged) (Homo sapiens (Human), UniProt O95271); assay: TNKS1 autoparsylation (AP) biochemical assay, LC/MS detection of nicotinamide; conditions: 20 nM enzyme, 250 μM NAD+, 60 min room temperature
human tankyrase 1 PARP catalytic domain, TNKS1P (GST-tagged), sequence (O95271 1112-1317): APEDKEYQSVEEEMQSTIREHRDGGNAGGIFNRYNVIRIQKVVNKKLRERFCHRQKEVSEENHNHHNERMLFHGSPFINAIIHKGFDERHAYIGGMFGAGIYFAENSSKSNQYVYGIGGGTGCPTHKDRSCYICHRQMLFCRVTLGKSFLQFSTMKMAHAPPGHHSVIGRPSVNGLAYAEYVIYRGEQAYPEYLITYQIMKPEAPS
Procedure: The human tankyrase 1 PARP catalytic domain, TNKS1P, was cloned into a pDONR221 vector using the Invitrogen Gateway Technology. This entry clone was then subcloned into the destination vector pDEST20 to obtain the N-terminal Glutathione S-transferase (GST)-tagged fusion protein.
The autoparsylation activity of the TNKS 1/2 or PARP1/2 enzymes was measured by the liquid chromatography-mass spectrometry (LC/MS) detection of nicotinamide as readout. Compound activity in inhibiting the TNKS and PARP autoparsylation was evaluated by IC50 measurements.

[3] = system: Wnt ligand-induced signaling; assay: Wnt-responsive Super-TOpFlash (STF) luciferase reporter gene assay in HEK293 cells; assay type: cell-based; conditions: Homo sapiens, Wnt3A condition medium induced
Procedure: Compound activity in inhibiting Wnt ligand-induced signaling was measured using a Wnt-responsive Super-TOpFlash (STF) luciferase reporter gene assay in HEK293 cells. On day 1 of the assay, cells were plated at a density of 8000 cells per well of 384-well plate in 25 μl medium containing 5% fetal bovine serum (FBS). On the second day, […] condition medium (CM) produced from mouse L cells was added to the cells to induce Wnt signaling, followed by addition of 5 μL of compounds each well in 10-point serial dilution. On the third day, the luciferase activity was measured by the Bright-Glo™ Luciferase Assay System following manufacture's protocol (Promega, E2620). The Inhibition was calculated as: (Maximum Wnt-induced signaling−Sample)/(Maximum Wnt-induced signaling−Background)*100. “Maximum Wnt-induced signaling” is the STF signal level induced by 20% Wnt3A CM without compound; and “Background” is the STF signal level without the addition of Wnt3A CM or compound.

Axin2 protein = assay: Cellular ELISA assay for stabilizing the Axin2 protein in SW480 cells; assay type: cell-based; conditions: Homo sapiens, 24 hrs treatment, read-out: Axin AC50
Procedure: Compound activity in stabilizing the Axin2 protein was measured by Sandwich Enzyme-Linked Immuosorbent (ELISA) assay in the colorectal cell line SW480. 30,000 SW480 cells were seeded per well in 96-well plate and incubated overnight prior to compound treatment. Cells were then treated with compounds in 6-point dilution starting at 10 μM for 24 hrs. Cells were then washed with 100 μL of cold Phosphate Buffer Saline (PBS), and lysed in 125 μl of cold 1× lysis buffer (Cell Signaling Technology, 9803) supplemented with Protease inhibitor (Roche, 11836170) and Phosphatase inhibitors (Sigma, P2850, P5726). For the ELISA assay, anti Axin-2 capture antibody (Strategic Diagnostics) antibody was diluted to a concentration of 1 μg/ml (1:1000) in Carbonate Coating buffer, pH 9.2 (Sigma, C3041-50CAP). 100μ of the diluted anti Axin-2 capture antibody per well was then used to coat the 96-well ELISA plate (Thermo Electron Corp., MicroLite 1 flat bottom plate #7571) overnight at 4° C. Plates were then washed three times with 300 μl/well of wash solution, PBST20 (PBS+0.05% Tween), and blocked with 300 μl/well 1% BSA/PBS (BSA, Millipore Probumin #82-045-1) for 1.5 hours at room temperature while shaking gently. After blocking, plates were then washed three times with 300 μl/well of wash solution. 100 μL of prepared SW480 cell lysate was then added to each well and incubated at room temperature for 2 hours while shaking gently. After washing, 100 μL of Biotinylated anti-Axin2 antibody (CST, 2151) was added to each well and incubated room temperature for 2 hours. 100 μL of Streptavidin-HRP (R&D systems, DY998) diluted 1:200 in 1% BSA/PBS was then added in each well and incubate for 30 mins at R/T in the dark. Signal was detected by Chemiluminescence (Pierce SuperSignal ELISA Femto #3704), and measured on PerkinElmer Wallac 1420 plate reader.

[4] = system: Non-small lung cancer ABC-1 cells; assay: Cellular proliferation assay, ABC-1 cells (CellTiter-Glo); assay type: cell-based; conditions: Homo sapiens, 72 h, 3 days of compound treatment
Procedure: Non-small lung cancer ABC-1 cells were plated at 5000 cells per well in 96-well plates and treated with 8 serial compound dilutions starting from 10 μM as the highest concentration. Viable cells were measured after 3 days of compound treatment using the CellTiter-Glo assay (Promega, G7570). Assay was performed following the manufacture protocol.

Human PARP1 = Human PARP1 (Homo sapiens (Human), UniProt P09874); assay: PARP1 autoparsylation biochemical assay, LC/MS detection of nicotinamide; conditions: read-out: PARP1 IC50, 20 nM enzyme, 250 μM NAD+, 60 min room temperature
Human PARP1, sequence (P09874 whole entry): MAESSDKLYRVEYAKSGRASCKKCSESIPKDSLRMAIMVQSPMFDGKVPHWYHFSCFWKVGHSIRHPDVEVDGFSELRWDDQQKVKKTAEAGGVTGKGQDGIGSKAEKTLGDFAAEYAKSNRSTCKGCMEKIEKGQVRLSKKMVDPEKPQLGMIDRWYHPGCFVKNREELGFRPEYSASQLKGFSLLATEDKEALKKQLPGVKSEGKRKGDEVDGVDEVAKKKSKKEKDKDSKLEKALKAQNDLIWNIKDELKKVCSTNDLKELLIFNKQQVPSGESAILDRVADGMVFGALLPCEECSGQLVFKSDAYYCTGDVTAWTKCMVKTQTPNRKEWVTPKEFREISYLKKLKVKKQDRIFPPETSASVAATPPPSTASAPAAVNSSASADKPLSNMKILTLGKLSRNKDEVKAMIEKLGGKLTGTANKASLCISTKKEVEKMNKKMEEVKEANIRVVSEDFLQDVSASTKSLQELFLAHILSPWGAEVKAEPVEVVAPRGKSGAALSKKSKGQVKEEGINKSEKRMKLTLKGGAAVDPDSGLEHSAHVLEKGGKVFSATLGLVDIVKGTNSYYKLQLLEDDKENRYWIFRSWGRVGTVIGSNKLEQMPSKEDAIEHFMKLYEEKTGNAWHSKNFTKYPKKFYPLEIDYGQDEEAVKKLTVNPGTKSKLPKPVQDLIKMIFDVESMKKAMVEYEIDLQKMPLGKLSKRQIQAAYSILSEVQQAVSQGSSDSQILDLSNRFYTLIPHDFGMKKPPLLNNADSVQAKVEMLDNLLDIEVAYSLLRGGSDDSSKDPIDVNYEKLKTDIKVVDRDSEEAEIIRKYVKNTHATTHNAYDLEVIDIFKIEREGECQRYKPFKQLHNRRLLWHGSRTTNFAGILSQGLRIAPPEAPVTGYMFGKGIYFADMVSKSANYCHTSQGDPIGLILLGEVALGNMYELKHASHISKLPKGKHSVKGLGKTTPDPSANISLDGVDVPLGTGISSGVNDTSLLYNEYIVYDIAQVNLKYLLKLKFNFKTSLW

PARP2 = PARP2 (Mus musculus (Mouse), UniProt O88554); assay: PARP2 autoparsylation biochemical assay, LC/MS detection of nicotinamide; conditions: read-out: PARP2 Ic50, 20 nM enzyme, 250 μM NAD+, 60 min room temperature
PARP2, sequence (O88554 whole entry): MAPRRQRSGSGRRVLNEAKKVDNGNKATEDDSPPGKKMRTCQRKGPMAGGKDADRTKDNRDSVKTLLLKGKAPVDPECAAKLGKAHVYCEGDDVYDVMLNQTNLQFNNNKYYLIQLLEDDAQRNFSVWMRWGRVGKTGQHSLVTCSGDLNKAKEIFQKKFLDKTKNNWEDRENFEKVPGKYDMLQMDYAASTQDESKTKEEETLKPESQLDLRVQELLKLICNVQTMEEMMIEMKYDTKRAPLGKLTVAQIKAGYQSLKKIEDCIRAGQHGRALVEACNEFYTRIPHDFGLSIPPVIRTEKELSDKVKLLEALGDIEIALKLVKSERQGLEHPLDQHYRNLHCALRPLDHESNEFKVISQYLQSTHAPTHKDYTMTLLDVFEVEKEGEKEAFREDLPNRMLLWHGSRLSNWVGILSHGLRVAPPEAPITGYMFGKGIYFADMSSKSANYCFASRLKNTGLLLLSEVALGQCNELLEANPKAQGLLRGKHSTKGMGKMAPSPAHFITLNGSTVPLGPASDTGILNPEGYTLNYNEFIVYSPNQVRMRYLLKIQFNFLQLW

[5] = system: Herpes Simplex Virus (HSV); conditions: cited from earlier work

tankyrase 2 protein PARP domain, TNKS2P (GST-tagged), sequence (Q9H2K2 959-1164): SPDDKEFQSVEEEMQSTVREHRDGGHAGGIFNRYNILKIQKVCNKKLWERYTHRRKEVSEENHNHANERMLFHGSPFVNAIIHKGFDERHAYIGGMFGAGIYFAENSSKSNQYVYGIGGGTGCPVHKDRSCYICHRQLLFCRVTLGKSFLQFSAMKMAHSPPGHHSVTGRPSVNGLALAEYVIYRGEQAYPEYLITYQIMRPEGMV

| Structure (SMILES) | IC50 [1] [nM] | IC50 [2] [nM] | IC50 [3] [nM] | AC50 (Axin2 protein) [nM] | IC50 [4] [nM] | IC50 (Human PARP1) [nM] | IC50 (PARP2) [nM] | HSV viral growth [5] | HSV viral protein expression [5] |
| --- | --- | --- | --- | --- | --- | --- | --- | --- | --- |
| COc1ccc(C(=O)C2CCN(C3CCN(Cc4nc5c(c(=O)[nH]4)CCC5)C3=O)CC2)cc1 (stereo not drawn) [Example 21, 2-((3-(4-(4-methoxybenzoyl)piperidin-1-yl)-2-oxopyrrolidin-1-yl)methyl)-6,7-dihydro-3H-cyclopenta[d]pyrimidin-4(5H)-one] | 17 ± 2 | 34 ± 1 | 1.1 ± 0.17 | 7 ± 2 | 18 | 29600 ± 2800 | 10700 ± 200 |  |  |
| Oc1nc(-c2ccc(C(F)(F)F)cc2)nc2c1CSCC2 [XAV939] |  |  |  |  |  |  |  | decreased viral growth | suppressed HSV viral protein expression |

From patent US9163003B2, “4-piperidinyl compounds for use as tankyrase inhibitors” (NOVARTIS AG, priority 2011, dated 2015)
